# Assay: toxic effects at multiples of the minimum active dose
# Type: in vivo, rats
# Conditions: dosed at one hundred times their minimum effective dose
row,SMILES,toxic effects
1,CC(C)C[C@H](NC(=O)[C@@H](COC(C)(C)C)NC(=O)[C@H](Cc1ccc(O)cc1)NC(=O)[C@H](CO)NC(=O)[C@H](Cc1c[nH]c2ccccc12)NC(=O)[C@H](Cc1cnc[nH]1)NC(=O)[C@@H]1CCC(=O)N1)C(=O)N[C@@H](CCCNC(=N)N)C(=O)N1CCC[C@H]1C(=O)NNC(N)=O [Example 7],no toxic effects
2,CC(C)C[C@H](NC(=O)[C@@H](Cc1ccccc1)NC(=O)[C@H](Cc1ccc(O)cc1)NC(=O)[C@H](CO)NC(=O)[C@H](Cc1c[nH]c2ccccc12)NC(=O)[C@H](Cc1c[nH]cn1)NC(=O)[C@@H]1CCC(=O)N1)C(=O)N[C@@H](CCCNC(=N)N)C(=O)N1CCC[C@H]1C(=O)NNC(N)=O [Example 4],no toxic effects
3,COc1ccc(C[C@@H](NC(=O)[C@H](Cc2ccc(O)cc2)NC(=O)[C@H](CO)NC(=O)[C@H](Cc2c[nH]c3ccccc23)NC(=O)[C@H](Cc2c[nH]cn2)NC(=O)[C@@H]2CCC(=O)N2)C(=O)N[C@@H](CC(C)C)C(=O)N[C@@H](CCCNC(=N)N)C(=O)N2CCC[C@H]2C(=O)NNC(N)=O)cc1 [Example 6],no toxic effects
